These are literature values, as cited in US5843713A, “Peptide sequence that forms mucin sugar chain and technique for modifying protein to be linked with mucin sugar chain” (Kirin Beer Kabushiki Kaisha, priority 1994, dated 1998).

In the first series the test system is crude enzyme solution of O-GalNAc T extracted from human breast cancer cells MCF7. The conditions noted are these: literature, J. Biol. Chem. Vol.269 (1994).
With “PDTRAPPGS [literature peptide analogous to repetitive region of human mucin MUC1]”, the “transfer of GalNAc” value was “no transfer of GalNAc is observed”.
For the substance “PDTRPAPGS [literature peptide analogous to repetitive region of human mucin MUC1]”, the “transfer of GalNAc” value is given as “no transfer of GalNAc is observed”.
As for “PDTRPPAGS [literature peptide analogous to repetitive region of human mucin MUC1]”, the “transfer of GalNAc” value is on record as “no transfer of GalNAc is observed”.

The subject of the next series is O-GalNAc T derived from swine submaxillary gland. The settings on record: literature, Biochemistry Vol.18 (1979).
As for “PRTPPP: literature peptide derived from bovine myelin basic protein”, the GalNAc acceptor activity result is “highly active GalNAc acceptors”.
Consider “TPPP: literature peptide derived from bovine myelin basic protein (RTPPP)”, for which the GalNAc acceptor activity entry is listed as “highly active GalNAc acceptors”.
For “TPRTPPP [literature peptide derived from bovine myelin basic protein]”, the GalNAc acceptor activity result is reported as “highly active GalNAc acceptors”.
